Experimental data from publication PMC8799717, “Pharmacological targeting PIKfyve and tubulin as an effective treatment strategy for double-hit lymphoma” (Cell Death Discovery, 2022).

Key:
Experiment in all cases: biochemical
Parameters in all cases: KINOMEscan active-site-directed competition binding panel, 468 kinases, percent of DMSO control at 1 uM
Details in all cases: KINOMEscan binding, percent of DMSO control; read-out: Ctrl%
[1] = target: T1, LZK (Homo sapiens, UniProt O43283)
T1 construct: gene MAP3K13

[2] = target: T2, RSK1(Kin.Dom.1-N-terminal) (Homo sapiens, UniProt Q15418)
T2 construct: gene RPS6KA1; Kin.Dom.1-N-terminal
T2 sequence (Q15418 whole entry): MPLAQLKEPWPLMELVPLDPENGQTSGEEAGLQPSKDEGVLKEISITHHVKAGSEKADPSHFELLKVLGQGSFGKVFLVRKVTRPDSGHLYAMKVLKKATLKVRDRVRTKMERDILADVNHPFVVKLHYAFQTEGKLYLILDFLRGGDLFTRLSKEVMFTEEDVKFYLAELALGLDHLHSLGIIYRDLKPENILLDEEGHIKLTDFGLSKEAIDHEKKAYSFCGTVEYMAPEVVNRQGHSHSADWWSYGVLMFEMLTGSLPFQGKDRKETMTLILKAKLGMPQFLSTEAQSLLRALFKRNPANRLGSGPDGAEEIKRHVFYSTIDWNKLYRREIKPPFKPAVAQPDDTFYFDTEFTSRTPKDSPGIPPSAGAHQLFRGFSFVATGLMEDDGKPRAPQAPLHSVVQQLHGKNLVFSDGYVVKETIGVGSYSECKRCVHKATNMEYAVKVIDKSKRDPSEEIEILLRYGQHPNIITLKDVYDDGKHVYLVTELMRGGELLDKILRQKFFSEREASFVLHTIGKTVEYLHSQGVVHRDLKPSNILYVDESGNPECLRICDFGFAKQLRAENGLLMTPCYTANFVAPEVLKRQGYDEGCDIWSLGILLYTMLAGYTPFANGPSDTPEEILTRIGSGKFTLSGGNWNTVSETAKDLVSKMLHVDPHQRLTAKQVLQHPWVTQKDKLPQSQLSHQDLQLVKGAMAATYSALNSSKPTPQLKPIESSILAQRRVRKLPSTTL

[3] = target: SBK1 (Homo sapiens, UniProt Q52WX2)
[4] = target: CLK3 (Homo sapiens, UniProt P49761)
[5] = target: TEC (Homo sapiens, UniProt P42680)
[6] = target: T3, ABL1(H396P)-nonphosphorylated (Homo sapiens, UniProt P00519, H396P)
T3 construct: nonphosphorylated

[7] = target: T4, GCN2(Kin.Dom.2,S808G) (Homo sapiens, UniProt Q9P2K8, S808G)
T4 construct: gene EIF2AK4; Kin.Dom.2

[8] = target: T5, NIK (Homo sapiens, UniProt Q99558)
T5 construct: gene MAP3K14
T5 sequence (Q99558 whole entry): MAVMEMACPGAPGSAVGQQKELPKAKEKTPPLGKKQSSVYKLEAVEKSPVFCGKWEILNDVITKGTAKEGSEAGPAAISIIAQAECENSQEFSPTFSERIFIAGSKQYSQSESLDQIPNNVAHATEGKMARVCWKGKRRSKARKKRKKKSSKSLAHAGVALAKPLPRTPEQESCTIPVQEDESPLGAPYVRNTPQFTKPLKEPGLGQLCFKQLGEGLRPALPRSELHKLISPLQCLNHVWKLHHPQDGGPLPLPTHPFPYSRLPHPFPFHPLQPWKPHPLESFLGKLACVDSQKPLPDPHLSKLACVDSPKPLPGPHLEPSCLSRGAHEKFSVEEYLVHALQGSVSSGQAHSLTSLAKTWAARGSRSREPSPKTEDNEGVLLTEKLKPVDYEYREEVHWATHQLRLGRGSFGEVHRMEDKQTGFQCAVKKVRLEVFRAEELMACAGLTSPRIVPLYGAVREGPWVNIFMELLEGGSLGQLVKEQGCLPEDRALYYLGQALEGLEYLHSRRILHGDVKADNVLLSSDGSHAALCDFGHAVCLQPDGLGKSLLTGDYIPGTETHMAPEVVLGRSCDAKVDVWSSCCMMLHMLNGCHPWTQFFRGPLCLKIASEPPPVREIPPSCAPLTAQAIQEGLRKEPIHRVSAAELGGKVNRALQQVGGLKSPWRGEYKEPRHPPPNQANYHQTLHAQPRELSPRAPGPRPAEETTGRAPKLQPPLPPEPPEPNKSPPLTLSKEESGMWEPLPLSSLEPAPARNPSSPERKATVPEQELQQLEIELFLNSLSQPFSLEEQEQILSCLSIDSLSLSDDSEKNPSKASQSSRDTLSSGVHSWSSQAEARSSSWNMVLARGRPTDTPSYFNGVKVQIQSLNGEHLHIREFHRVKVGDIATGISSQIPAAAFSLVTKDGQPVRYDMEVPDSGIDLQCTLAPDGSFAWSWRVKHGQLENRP

[9] = target: TXK (Homo sapiens, UniProt P42681)
[10] = target: T6, SIK (Homo sapiens, UniProt P57059)
T6 construct: gene SIK1
T6 sequence (P57059 whole entry): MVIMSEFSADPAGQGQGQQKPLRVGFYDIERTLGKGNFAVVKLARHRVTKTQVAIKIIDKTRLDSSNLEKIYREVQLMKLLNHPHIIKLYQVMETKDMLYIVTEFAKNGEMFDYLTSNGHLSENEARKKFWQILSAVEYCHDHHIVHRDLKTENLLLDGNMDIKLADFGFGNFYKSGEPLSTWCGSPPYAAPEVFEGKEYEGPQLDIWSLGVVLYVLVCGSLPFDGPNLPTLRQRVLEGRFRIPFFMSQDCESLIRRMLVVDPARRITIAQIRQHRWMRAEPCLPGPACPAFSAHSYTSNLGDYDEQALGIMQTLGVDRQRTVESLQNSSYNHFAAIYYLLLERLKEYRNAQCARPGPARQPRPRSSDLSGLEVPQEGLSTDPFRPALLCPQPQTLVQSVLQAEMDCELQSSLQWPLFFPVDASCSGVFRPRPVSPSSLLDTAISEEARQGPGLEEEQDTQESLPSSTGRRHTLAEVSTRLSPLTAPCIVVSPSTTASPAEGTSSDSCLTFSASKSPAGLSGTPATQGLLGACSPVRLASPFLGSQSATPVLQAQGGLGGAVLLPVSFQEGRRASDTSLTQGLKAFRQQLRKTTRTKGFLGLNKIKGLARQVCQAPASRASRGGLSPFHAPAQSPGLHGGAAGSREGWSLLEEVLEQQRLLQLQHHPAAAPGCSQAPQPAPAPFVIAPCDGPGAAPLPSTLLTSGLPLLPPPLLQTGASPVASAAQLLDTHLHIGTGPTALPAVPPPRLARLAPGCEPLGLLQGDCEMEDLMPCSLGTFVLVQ

[11] = target: EPHA2 (Homo sapiens, UniProt P29317)
[12] = target: EGFR(S752-I759del) (Homo sapiens, UniProt P00533, DEL752-759)
[13] = target: KIT(L576P) (Homo sapiens, UniProt P10721, L576P)
[14] = target: CSNK1G2 (Homo sapiens, UniProt P78368)
[15] = target: MAPKAPK2 (Homo sapiens, UniProt P49137)
[16] = target: KIT(V559D,V654A) (Homo sapiens, UniProt P10721, V559D/V654A)
[17] = target: AKT3 (Homo sapiens, UniProt Q9Y243)
[18] = target: STK36 (Homo sapiens, UniProt Q9NRP7)
[19] = target: PIM1 (Homo sapiens, UniProt P11309)
Sequence of PIM1 (P11309 whole entry): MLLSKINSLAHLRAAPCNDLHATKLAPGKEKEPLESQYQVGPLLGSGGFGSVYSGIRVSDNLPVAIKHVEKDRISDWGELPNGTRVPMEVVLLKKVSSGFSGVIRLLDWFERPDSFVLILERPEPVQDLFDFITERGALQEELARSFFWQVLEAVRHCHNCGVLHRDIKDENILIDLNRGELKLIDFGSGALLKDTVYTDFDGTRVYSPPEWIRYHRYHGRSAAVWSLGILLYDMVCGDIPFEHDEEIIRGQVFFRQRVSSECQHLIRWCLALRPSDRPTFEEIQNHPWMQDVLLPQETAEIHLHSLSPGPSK

[20] = target: EPHA7 (Homo sapiens, UniProt Q15375)
[21] = target: MAP4K4 (Homo sapiens, UniProt O95819)
Sequence of MAP4K4 (O95819 whole entry): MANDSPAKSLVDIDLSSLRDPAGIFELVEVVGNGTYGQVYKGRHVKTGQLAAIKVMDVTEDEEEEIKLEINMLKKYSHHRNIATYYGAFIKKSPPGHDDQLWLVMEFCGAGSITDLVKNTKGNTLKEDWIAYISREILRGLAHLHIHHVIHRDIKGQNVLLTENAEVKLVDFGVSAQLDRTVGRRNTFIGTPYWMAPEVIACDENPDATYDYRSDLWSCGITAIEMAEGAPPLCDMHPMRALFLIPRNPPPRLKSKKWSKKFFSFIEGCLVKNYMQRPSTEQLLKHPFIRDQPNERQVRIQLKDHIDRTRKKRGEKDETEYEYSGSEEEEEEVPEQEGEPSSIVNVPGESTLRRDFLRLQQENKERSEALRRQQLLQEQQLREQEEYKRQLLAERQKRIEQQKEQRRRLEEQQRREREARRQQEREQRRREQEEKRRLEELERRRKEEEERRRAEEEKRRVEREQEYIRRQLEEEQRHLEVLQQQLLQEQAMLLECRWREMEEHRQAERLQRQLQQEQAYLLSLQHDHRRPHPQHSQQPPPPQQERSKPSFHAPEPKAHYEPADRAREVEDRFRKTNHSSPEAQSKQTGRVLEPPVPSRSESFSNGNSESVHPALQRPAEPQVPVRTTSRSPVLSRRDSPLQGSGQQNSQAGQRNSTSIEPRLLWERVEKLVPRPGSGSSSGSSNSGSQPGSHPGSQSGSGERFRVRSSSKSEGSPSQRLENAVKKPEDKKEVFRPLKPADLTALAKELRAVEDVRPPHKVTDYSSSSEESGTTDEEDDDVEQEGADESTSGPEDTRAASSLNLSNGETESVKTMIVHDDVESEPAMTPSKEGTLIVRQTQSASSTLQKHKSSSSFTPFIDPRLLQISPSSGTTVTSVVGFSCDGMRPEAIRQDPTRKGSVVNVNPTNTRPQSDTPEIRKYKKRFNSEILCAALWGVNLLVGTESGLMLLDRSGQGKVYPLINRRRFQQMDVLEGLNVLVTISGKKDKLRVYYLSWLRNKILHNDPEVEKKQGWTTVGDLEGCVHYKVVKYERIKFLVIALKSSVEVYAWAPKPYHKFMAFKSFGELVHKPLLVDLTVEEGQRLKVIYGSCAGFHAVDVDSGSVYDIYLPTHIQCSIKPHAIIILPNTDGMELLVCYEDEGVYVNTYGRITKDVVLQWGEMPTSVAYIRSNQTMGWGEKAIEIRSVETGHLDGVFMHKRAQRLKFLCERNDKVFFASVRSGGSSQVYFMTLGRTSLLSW

[22] = target: T7, MLK1 (Homo sapiens, UniProt P80192)
T7 construct: gene MAP3K9

[23] = target: MERTK (Homo sapiens, UniProt Q12866)
Sequence of MERTK (Q12866 whole entry): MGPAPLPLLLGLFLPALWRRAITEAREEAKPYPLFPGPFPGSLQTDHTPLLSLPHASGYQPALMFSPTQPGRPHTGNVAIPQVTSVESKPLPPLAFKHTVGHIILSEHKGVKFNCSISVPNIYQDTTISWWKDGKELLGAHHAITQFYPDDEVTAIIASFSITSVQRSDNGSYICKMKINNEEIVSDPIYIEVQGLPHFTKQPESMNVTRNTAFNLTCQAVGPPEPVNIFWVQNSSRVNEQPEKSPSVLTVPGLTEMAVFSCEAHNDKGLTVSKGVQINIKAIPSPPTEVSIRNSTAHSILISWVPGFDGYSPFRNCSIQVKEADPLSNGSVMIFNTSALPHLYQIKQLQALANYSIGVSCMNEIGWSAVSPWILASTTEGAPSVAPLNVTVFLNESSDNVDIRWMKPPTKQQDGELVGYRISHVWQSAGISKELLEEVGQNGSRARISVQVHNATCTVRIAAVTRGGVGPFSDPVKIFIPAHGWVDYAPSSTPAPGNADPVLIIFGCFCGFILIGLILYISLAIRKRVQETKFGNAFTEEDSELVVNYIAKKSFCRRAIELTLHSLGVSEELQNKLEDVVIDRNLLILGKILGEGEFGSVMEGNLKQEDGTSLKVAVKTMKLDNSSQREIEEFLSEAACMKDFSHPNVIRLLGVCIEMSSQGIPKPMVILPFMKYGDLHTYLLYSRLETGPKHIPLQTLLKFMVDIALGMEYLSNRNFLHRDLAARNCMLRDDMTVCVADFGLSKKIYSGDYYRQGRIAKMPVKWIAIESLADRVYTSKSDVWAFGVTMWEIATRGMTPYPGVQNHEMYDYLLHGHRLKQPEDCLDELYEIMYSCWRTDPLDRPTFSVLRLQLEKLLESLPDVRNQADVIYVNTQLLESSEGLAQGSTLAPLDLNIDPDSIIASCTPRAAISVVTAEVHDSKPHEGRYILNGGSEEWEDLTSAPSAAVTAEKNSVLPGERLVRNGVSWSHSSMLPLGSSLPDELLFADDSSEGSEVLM

SMILES: Cc1ccc(NC(=O)c2cccc(C(F)(F)F)c2)cc1Nc1cc(-c2cccnc2)nc2[nH]ccc12 [HZX-02-059]
- remaining binding at 1 µM [1]: 100%
- remaining binding at 1 µM [2]: 72%
- remaining binding at 1 µM [3]: 88%
- remaining binding at 1 µM [4]: 82%
- remaining binding at 1 µM [5]: 96%
- remaining binding at 1 µM [6]: 55%
- remaining binding at 1 µM [7]: 100%
- remaining binding at 1 µM [8]: 61%
- remaining binding at 1 µM [9]: 78%
- remaining binding at 1 µM [10]: 90%
- remaining binding at 1 µM [11]: 4%
- remaining binding at 1 µM [12]: 100%
- remaining binding at 1 µM [13]: 0.3%
- remaining binding at 1 µM [14]: 96%
- remaining binding at 1 µM [15]: 80%
- remaining binding at 1 µM [16]: 61%
- remaining binding at 1 µM [17]: 69%
- remaining binding at 1 µM [18]: 89%
- remaining binding at 1 µM [19]: 92%
- remaining binding at 1 µM [20]: 66%
- remaining binding at 1 µM [21]: 89%
- remaining binding at 1 µM [22]: 100%
- remaining binding at 1 µM [23]: 86%
